The subject of data set [1] is progerin. Kind of data set: progerin mRNA expression by quantitative PCR in AG01972 cells. The data set is classed as cell-based, human. The following applies: 48 h. Here is the method:
(§1) The AG01972 primary HGPS cell line was obtained from Coriell Cell Repositories (New Jersey, USA). Human dermal fibroblasts (HDF) were isolated from juvenile foreskins and termed 2DD was also used. AG01972 cells were cultured in T75 tissue culture treated flasks (Fisher, UK) containing Dulbecco's […]+Glutamax (Invitrogen, UK), supplemented with 15% fetal calf serum and 1% penicillin/streptomycin (Invitrogen) in an humidified, 37° C., 5% CO2/95% air incubator. The cells were passaged twice weekly. Cells were plated at a density of 2×10^5 into 9 cm dishes containing 13 mm diameter glass coverslips. Six hours after seeding, the AG01972 cells were treated with 0.1% dimethyl sulfoxide, different concentrations of DHB. DHB treatment was repeated 24 h after the initial treatment. The cells were analyzed after 48 h of treatment.
(§2) Total RNA was isolated using a RNeasy Micro extraction kit according to the manufacturer's protocol. An on-column DNase I digestion was performed to avoid genomic DNA amplification. […] The quantitative PCR analysis was performed following the manufacturers' instructions.
(§3) Quantification of gene expression was based on the DeltaCt Method and normalized on 18S expression. […]
(§4) The protein levels of A-type lamins and mRNA expressions of lamin A and progerin were measured 48 h after DHB treatment on AG01972 cells. […]

Data set [2] deals with lamin A. Nature of the data set: lamin A mRNA expression by quantitative PCR in AG01972 cells. The class given is cell-based, human. The following applies: 48 h. The procedure:
as §1, §2, §3, §4

Data set [3] has as its system lamin A. Kind of data set: lamin A mRNA expression by quantitative PCR in 2DD cells. The class given is cell-based, human. The note with it: 5 μmol/L DHB. The procedure: as §1, §2, §3, §4
Data set [4] has as its system progerin. Kind of data set: progerin protein level by western blot in AG01972 cells. The data set is classed as cell-based, human. The following applies: 5 μmol/L DHB. Here is the method: (§5) Whole-cell lysates of AG01972 cells and 2DD cells were collected, separated by SDS polyacrylamide gel electrophoresis, and transferred onto polyvinylidene fluoride membrane using the liquid transfer method. The blots were blocked in 10% skim milk in Tween 0.1% tris-buffered saline 1×1 h at room temperature. The membranes were incubated during the night at 4° C. Antigen-antibody binding was detected using horseradish peroxidase-conjugated species-specific secondary antibodies, followed by enhanced chemiluminescence western blotting detection reagents. The western blot results were quantified using ImageJ software. FIG. 2a is a graph of protein levels of lamin A and progerin in AG01972 cells of DHB supplemented group and non-supplemented group. FIG. 2b is a graph of protein levels of lamin A and progerin in 2DD cells of DHB supplemented group and non-supplemented group.
In general terms: In western blotting, separated proteins are transferred to a membrane and probed.

In data set [5] the test system is lamin A. Nature of the data set: lamin A protein level by western blot in AG01972 cells. The class given is cell-based, human. The note with it: 5 μmol/L DHB. The procedure: as §5
Data set [6] relates to lamin A. Nature of the data set: lamin A protein level by western blot in 2DD cells. The data set is classed as cell-based, human. The following applies: 5 μmol/L DHB. The procedure:
as §5

Data set [7] has as its system 2BS cells. Nature of the data set: cell proliferation (CCK-8) of PD45 2BS cells. The class given is cell-based, human. Here is the method: (§6) Human diploid fibroblast 2BS and WI38 cells were isolated from fetal lung fibroblast tissue. These cell lines were purchased from commercially available sources. Cells were grown in Dulbecco's Modification Eagle's Minimum Essential Medium (DMEM, Life Technologies Inc.) supplemented with 10% fetal bovine serum (FBS; Gibco), 2 mm glutamine, 100 U/ml penicillin, and 100 μg/ml streptomycin, in a humidified atmosphere with 5% CO2 at 37° C. These cells were considered as young at PD30 or below and fully senescent at PD50 or above Cell proliferation was assayed using the CCK-8 method. […] The absorbance values of each well were measured at day 0 (4 h after plating) and on days 1, 2, 3, 4, 5, and 6. […] At the indicated points, cells were harvested with 10% CCK-8 for one hour, and the absorbance was measured at 490 nm. Each data point was measured five times, and each curve was repeated more than three times. […] FIG. 3a is a graph of effect of DHB at different concentrations on the proliferation of PD45 2BS cells and WI38 cells measured by […]. […] FIG. 3d is a graph of quantification of SA-β-gal-positive cell rate of 2BS cells. Quantification analysis of SA-β-gal in FIG. 3d is shown that DHB (about 9%) could delay or reverse the population senescence of 2BS cells remarkably, as compared to the PD 45-DMEM group (about 55%) and PD 45 group (about 60%).

Another data set relates to WI38 cells. Kind of data set: cell proliferation (CCK-8) of PD45 WI38 cells. The data set is classed as cell-based, human. Here is the method: as §6
Data set [8] relates to 2BS cells. Kind of data set: senescence-associated β-galactosidase (SA-β-gal) assay in 2BS cells. The class given is cell-based, human. The note with it: 2BS cells PD45, 0.300 μg/ml DHB; PD 45-DMEM group about 55%, PD 45 group about 60%. Here is the method: Human diploid fibroblast 2BS and WI38 cells were isolated from fetal lung fibroblast tissue. These cell lines were purchased from commercially available sources. Cells were grown in Dulbecco's Modification Eagle's Minimum Essential Medium (DMEM, Life Technologies Inc.) supplemented with 10% fetal bovine serum (FBS; Gibco), 2 mm glutamine, 100 U/ml penicillin, and 100 μg/ml streptomycin, in a humidified atmosphere with 5% CO2 at 37° C. These cells were considered as young at PD30 or below and fully senescent at PD50 or above Senescence-associated β-galactosidase (SA-β-gal) assay: 2B S cells (PD45) grown in DMEM with/without 0.300 μg/ml DHB concentration were stained according to the method of Dimri with minor modifications (Dimri, Lee et al. 1995). […] The average value of the percentage of SA-β-gal-positive cells for each set of samples was calculated based on three independent experiments. […] FIG. 3a is a graph of effect of DHB at different concentrations on the proliferation of PD45 2BS cells and WI38 cells measured by MTT-assay. […] FIG. 3d is a graph of quantification of SA-β-gal-positive cell rate of 2BS cells. Quantification analysis of SA-β-gal in FIG. 3d is shown that DHB (about 9%) could delay or reverse the population senescence of 2BS cells remarkably, as compared to the PD 45-DMEM group (about 55%) and PD 45 group (about 60%).

The conditions of data set [9]: compared with berberine (BBR), Feng et al. 2015; cited from earlier work.
The mark [10] stands for this setting: different concentrations of DHB, normalized on 18S.

Regarding `COc1ccc2c(c1OC)CN1CCc3cc4c(cc3C1=C2)OCO4` [DHB, Dihydroberberine], the “concentration of maximum effect on progerin mRNA expression” value in the data set on progerin [1] was 5 µmol/L. In the data set on progerin [1] (setting [10]), the “progerin mRNA expression compared with untreated cells” value was “dose-dependent decrease”. The “concentration of maximum effect on lamin A mRNA expression” value in the data set with lamin A [2] came out at 5 µmol/L. Further, the “lamin A mRNA expression compared with untreated cells” value with lamin A [2] (setting [10]) is “dose-dependent decrease”. Besides, the “lamin A mRNA expression” value in the data set with lamin A [3] is on record as “decrease in lamin A mRNA expression”. The “progerin protein content (western blot) compared with untreated cells” value with progerin [4] is recorded as “significant decrease in progerin content”. The “lamin A protein level (western blot) compared with untreated cells” value in the data set on lamin A [5] and in the data set with lamin A [6] was “decrease in lamin A” in each case. In addition, the “effect on proliferation, time course” value was “promoted proliferation” with 2BS cells [7] (2BS (PD45) cells, 0.3 μg/ml, seven days of incubation) and “promoted proliferation” with WI38 cells (WI38 (PD45) cells, 0.3 μg/ml, seven days of incubation). Further, the “optimum concentration for proliferation” value in the data set with 2BS cells [7] (PD45 2BS cells, FIG. 3a) was found to be 0.3 µg/mL; with WI38 cells (PD45 WI38 cells, FIG. 3a), 0.3 µg/mL. For the same compound, the SA-β-gal-positive cell rate entry in the data set with 2BS cells [8] is recorded as “about 9%”. For the same compound, in [9], the absorption result is “improved absorption”. For the same compound, in [9], the oral bioavailability result was “enhanced oral bioavailability”.

Values taken from patent US20230138246A1, “USE OF DIHYDROBERBERINE OR ITS DERIVATIVES FOR ANTI-AGING” (NANJING NUTRABUILDING BIO-TECH CO., LTD., priority 2021, published 2023).
